Tests used:
[1] = target: T1, PPARG/RXRA LBD heterodimer (Homo sapiens, UniProt P37231); test: PPARγ-NCOR1 recruitment assay (TR-FRET, biotinylated NCOR1 ID2 peptide); assay type: biochemical; conditions: 80 nM Rosiglitazone, 3 hours, read-out: PPARG-NCOR recruitment assay EC50
T1 construct: His-TEV-Q203-Y477; Uniprot ID P37231-2; made in house; host or cells: E. coli
Procedure: PPARγ-NCOR1 Recruitment Assay:
Compound potency (EC50) and maximal extent of NCOR1 recruitment to PPARG were assessed a TR-FRET binding assay measuring association of a biotinylated NCOR1 ID2 peptide (Biotin-[…]-amide) to PPARG/RXRA LBD heterodimer. Specifically, a 20 microliters of TR-FRET master mix consisting of 2 nM WT PPARG LBD (E. coli expressed, His-TEV-Q203-Y477; Uniprot ID P37231-2), 2 nM WT RXRA LBD or mutant S427F RXRA LBD (E. coli expressed, Flag-TEV-E228-T462; […]. Mixtures were incubated for 3 hours and read in an EnVision plate reader (Perkin Elmer) with Ex/Em 615/665. To determine the potency (EC50) and extent of NCOR1 recruitment, TR-FRET ratios were normalized to the average ratio of DMSO control wells (0%) and to the average maximum ratio for positive control compound (T0070907 (2-chloro-5-nitro-N-4-pyridinyl-benzamide); defined as 100%) in CDD Vault and analyzed using the Levenberg-Marquardt algorithm.
T1 sequence (O75376 2251-2273 partner, one chain of several): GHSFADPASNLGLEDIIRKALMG

[2] = target: T2, PPARG/RXRA LBD heterodimer (Homo sapiens, UniProt P37231); test: PPARγ-MED1 blockade assay (TR-FRET, biotinylated MED1 LxxLL peptide); assay type: biochemical; conditions: WT PPARG LBD/WT RXRA LBD, 80 nM Rosiglitazone, 3 hours
T2 construct: His-TEV-Q203-Y477; Uniprot ID P37231-2; made in house; host or cells: E. coli
T2 sequence (P37231 203-477 isoform P37231-2): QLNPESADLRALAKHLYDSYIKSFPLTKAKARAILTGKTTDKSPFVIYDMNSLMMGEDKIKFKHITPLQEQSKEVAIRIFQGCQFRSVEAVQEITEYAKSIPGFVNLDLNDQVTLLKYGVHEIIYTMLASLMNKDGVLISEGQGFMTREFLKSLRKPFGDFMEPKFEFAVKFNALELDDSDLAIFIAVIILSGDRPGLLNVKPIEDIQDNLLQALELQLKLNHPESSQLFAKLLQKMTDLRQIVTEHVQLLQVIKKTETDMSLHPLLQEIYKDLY
T2 sequence (P19793 228-462 partner limits assumed): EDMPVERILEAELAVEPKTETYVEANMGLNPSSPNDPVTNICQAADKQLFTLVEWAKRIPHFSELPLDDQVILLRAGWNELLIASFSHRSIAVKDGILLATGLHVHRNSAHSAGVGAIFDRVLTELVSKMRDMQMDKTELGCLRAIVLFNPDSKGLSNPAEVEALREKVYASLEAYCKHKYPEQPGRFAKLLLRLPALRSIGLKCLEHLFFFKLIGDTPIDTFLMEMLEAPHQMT
Procedure: PPARγ-MED1 Blockade Assay:
Compound potency (IC50) and maximal extent of MED1 repulsion to PPARG were assessed a TR-FRET binding assay measuring association of a biotinylated MED1 LxxLL peptide (Biotin-[…]-amide) to PPARG/RXRA LBD heterodimer. Specifically, a 20 microliters of TR-FRET master mix consisting of 2 nM WT PPARG LBD (E. coli expressed, His-TEV-Q203-Y477; Uniprot ID P37231-2), 2 nM WT RXRA LBD (E. coli expressed, Flag-TEV-E228-T462; […]. Mixtures were incubated for 3 hours and read in an EnVision plate reader (Perkin Elmer) with Ex/Em 615/665. To determine the potency (IC50) and extent of MED1 repulsion, TR-FRET ratios were normalized to the average ratio of DMSO control wells (0%) and to the average minimum ratio for positive control compound (GW9662 (2-chloro-5-nitrobenzanilide); defined as 100%) in CDD Vault and analyzed using the Levenberg-Marquardt algorithm.

[3] = tested on: ANGPTL4, a PPARG target gene, in HT1197 (RXRA S427F mutation) cells; test: Bladder cancer pharmacodynamic assay, HT1197 cell assay (qPCR of ANGPTL4); assay type: cell-based; conditions: Homo sapiens, 24 hours, 100 nM compound, relative to DMSO control
Procedure: Bladder Cancer Pharmacodynamic Assay
5637 (PPARG amplified) and HT1197 (RXRA S427F mutation) cells were used for assessment of modulation of PPARG target genes using quantitative PCR. Cells were treated for 24 hours with PPARG inverse agonists prior to analysis of FABP4 (IDT, Cat: Hs.PT 58.20106818) and ANGPTL4 (IDT, Cat: Hs.PT 58.25480012) expression, with expression of the housekeeping gene TBP (IDT, Cat: Hs.PT 58v.39858774) used to normalize expression across samples. Quantitative PCR was performed using an ABI QuantStudio 7 Flex Reaction system. Data were analyzed and reported relative to DMSO control using the comparative Ct method (ΔΔCt).

Row | Structure (SMILES) | EC50 [1] [nM] | EC50 [2] [nM] | inhibition at 0.1 µM [3] [%]
1 | CN1CCN(c2cc3c(=O)cc(-c4cc(C#N)ccc4Cl)[nH]c3cc2Cl)CC1 [Example 105, 4-chloro-3-(7-chloro-6-(4-methylpiperazin-1-yl)-4-oxo-1,4-dihydroquinolin-2-yl)benzonitrile] | 1000 to 10000 | 1000 to 10000 | 60
2 | CN(C)C(=O)c1cccc(-c2c(F)cc3[nH]c(-c4cc(C#N)ccc4Cl)cc(=O)c3c2F)n1 [Example 85, 6-(2-(2-chloro-5-cyanophenyl)-5,7-difluoro-4-oxo-1,4-dihydroquinolin-6-yl)-N,N-dimethylpicolinamide] | 1000 to 10000 | 1000 to 10000 | 59
3 | N#Cc1ccc(Cl)c(-c2cc(=O)c3c(F)c(C(O)CO)c(F)cc3[nH]2)c1 (stereo not drawn) [Example 90, 4-chloro-3-(6-(1,2-dihydroxyethyl)-5,7-difluoro-4-oxo-1,4-dihdroquinolin-2-yl)benzonitrile] | 1000 to 10000 | > 10000 | 0
4 | CS(=O)(=O)C1CN(c2c(F)cc3[nH]c(-c4cc(C#N)ccc4Cl)cc(=O)c3c2F)C1 [Example 101, 4-chloro-3-(5,7-difluoro-6-(3-(methylsulfonyl)azetidin-1-yl)-4-oxo-1,4-dihydroquinolin-2-yl)benzonitrile] | 1000 to 10000 | 1000 to 10000 | 52
5 | N#Cc1ccc(Cl)c(-c2cc(=O)c3c(F)c(-c4cc[nH]c(=O)c4)c(F)cc3[nH]2)c1 [Example 54, 4-chloro-3-(5,7-difluoro-4-oxo-6-(2-oxo-1,2-dihydropyridin-4-yl)-1,4-dihydroquinolin-2-yl)benzonitrile] | 100 to 1000 | 100 to 1000 | 20
6 | Cc1c(F)c(F)cc2[nH]c(-c3cc(C#N)ccc3Cl)cc(=O)c12 [Example 24, 4-chloro-3-(6,7-difluoro-5-methyl-4-oxo-1,4-dihydroquinolin-2-yl)benzonitrile] | 100 to 1000 | 100 to 1000 | 69
7 | CC(C)(O)Cn1cc(-c2c(F)cc3[nH]c(-c4cc(C#N)ccc4Cl)cc(=O)c3c2F)cn1 [Example 48, 4-chloro-3-(5,7-difluoro-6-(1-(2-hydroxy-2-methylpropyl)-1H-pyrazol-4-yl)-4-oxo-1,4-dihydroquinolin-2-yl)benzonitrile] | 1000 to 10000 | 1000 to 10000 | 47
8 | CNC(=O)CCc1c(F)cc2[nH]c(-c3cc(C#N)ccc3Cl)cc(=O)c2c1F [Example 81, 3-(2-(2-chloro-5-cyanophenyl)-5,7-difluoro-4-oxo-1,4-dihydroquinolin-6-yl)-N-methylpropanamide] | 1000 to 10000 | > 10000 | 46
9 | Cc1ccc(-c2c(F)cc3[nH]c(-c4cc(C#N)ccc4Cl)cc(=O)c3c2F)nn1 [Example 70, 4-chloro-3-(5,7-difluoro-6-(6-methylpyridazin-3-yl)-4-oxo-1,4-dihydroquinolin-2-yl)benzonitrile] | 1000 to 10000 | 1000 to 10000 | 66

Second part, led by results:

Row | EC50 [1] [nM] | EC50 [2] [nM] | Structure (SMILES) | inhibition at 0.1 µM [3] [%]
10 | 100 to 1000 | 100 to 1000 | N#Cc1ccc(Cl)c(-c2cc(=O)c3c(F)c(-c4cnn(C(F)F)c4)c(F)cc3[nH]2)c1 [Example 38, 4-chloro-3-(6-(1-(difluoromethyl)-1H-pyrazol-4-yl)-5,7-difluoro-4-oxo-1,4-dihydroquinolin-2-yl)benzonitrile] | 80
11 | 100 to 1000 | 100 to 1000 | N#Cc1ccc(Cl)c(-c2cc(=O)c3ccc(Cl)cc3[nH]2)c1 [Example 31, 4-chloro-3-(7-chloro-4-oxo-1,4-dihydroquinolin-2-yl)benzonitrile] | 90
12 | 100 to 1000 | 100 to 1000 | N#Cc1ccc(Cl)c(-c2cc(=O)c3c(F)c(-c4ccc(CO)nc4)c(F)cc3[nH]2)c1 [Example 64, 4-chloro-3-(5,7-difluoro-6-(6-(hydroxymethyl)pyridin-3-yl)-4-oxo-1,4-dihydroquinolin-2-yl)benzonitrile] | 59
13 | 100 to 1000 | 100 to 1000 | CNC(=O)c1ccc(-c2c(F)cc3[nH]c(-c4cc(C#N)ccc4Cl)cc(=O)c3c2F)cc1 [Example 79, 4-(2-(2-chloro-5-cyanophenyl)-5,7-difluoro-4-oxo-1,4-dihydroquinolin-6-yl)-N-methylbenzamide] | 58
14 | 100 to 1000 | 100 to 1000 | N#Cc1ccc(Cl)c(-c2cc(=O)c3c(F)c(-c4ccc(CC(=O)O)cc4)c(F)cc3[nH]2)c1 [Example 76, 2-(4-(2-(2-chloro-5-cyanophenyl)-5,7-difluoro-4-oxo-1,4-dihydroquinolin-6-yl)phenyl)acetic acid] | 39
15 | 100 to 1000 | 100 to 1000 | N#Cc1ccc(-c2c(F)cc3[nH]c(-c4cc(C#N)ccc4Cl)cc(=O)c3c2F)cc1 [Example 35, 4-chloro-3-(6-(4-cyanophenyl)-5,7-difluoro-4-oxo-1,4-dihydroquinolin-2-yl)benzonitrile] | 54
16 | 100 to 1000 | 100 to 1000 | N#Cc1ccc(Cl)c(-c2cc(=O)c3c(F)c(-c4ccc(C(F)F)cn4)c(F)cc3[nH]2)c1 [Example 61, 4-chloro-3-(6-(5-(difluoromethyl)pyridin-2-yl)-5,7-difluoro-4-oxo-1,4-dihydroquinolin-2-yl)benzonitrile] | 70
17 | 100 to 1000 | 100 to 1000 | N#Cc1ccc(Cl)c(-c2cc(=O)c3c(Cl)cc(F)cc3[nH]2)c1 [Example 18, 4-chloro-3-(5-chloro-7-fluoro-4-oxo-1,4-dihydroquinolin-2-yl)benzonitrile] | 83
18 | 100 to 1000 | 1000 to 10000 | CN(C)C(=O)[C@@H]1CCN(c2c(F)cc3[nH]c(-c4cc(C#N)ccc4Cl)cc(=O)c3c2F)C1 [Example 116, (R)-1-(2-(2-chloro-5-cyanophenyl)-5,7-difluoro-4-oxo-1,4-dihydroquinolin-6-yl)-N,N-dimethylpyrrolidine-3-carboxamide] | 84
19 | 100 to 1000 | 10 to 100 | Cc1c(F)cc2[nH]c(-c3cc(C#N)ccc3Cl)cc(=O)c2c1F [Example 15, 4-chloro-3-(5,7-difluoro-6-methyl-4-oxo-1,4-dihydroquinolin-2-yl)benzonitrile] | 89
20 | 100 to 1000 | 100 to 1000 | N#Cc1ccc(Cl)c(-c2cc(=O)c3c(F)c(-c4cnn(C(F)(F)F)c4)c(F)cc3[nH]2)c1 [Example 58, 4-chloro-3-(5,7-difluoro-4-oxo-6-(1-(trifluoromethyl)-1H-pyrazol-4-yl)-1,4-dihydroquinolin-2-yl)benzonitrile] | 88
21 | 100 to 1000 | 100 to 1000 | N#Cc1ccc(Cl)c(-c2cc(=O)c3c(F)c(-c4ccnc(C(F)(F)F)c4)c(F)cc3[nH]2)c1 [Example 53, 4-chloro-3-(5,7-difluoro-4-oxo-6-(2-(trifluoromethyl)pyridin-4-yl)-1,4-dihydroquinolin-2-yl)benzonitrile] | 36

— patent US20240166624A1, “PPARG INVERSE AGONISTS AND USES THEREOF” (Flare Therapeutics Inc., priority 2021, published 2024)
